Assay results taken from patent US20090054507A1, “CONTROL OF MALIGNANT CELLS BY KINASE INHIBITION” (CLEVELAND STATE UNIVERSITY, priority 2006, published 2009).

Tests used:
[1] = tested on: tumors of U-87 cells; assay: Murine xenograft of U-87 cells, tumor volume; assay type: in vivo, mice; conditions: DMAT at effective dosage levels (in DMSO) per animal per day, approximately 24 days
Description: FIG. 96 illustrates the effect of administration of DMAT as compared to a control, i.e. DMSO, for a period of approximately 24 days. FIG. 96 is a graph of a murine xenograft treated with DMAT, compared to a control. Mice with tumors of U-87 cells were treated with DMAT at effective dosage levels (in DMSO) per animal per day. The daily animal weight was averaged at 32.5 g at the start of treatment. Tumors were measured daily and tumor volumes were calculated based upon a prolate spheroid model. FIG. 96 illustrates the significant benefits of treatment with DMAT (squares) as compared to the control (diamonds).

[2] = tested on: platelets from MEG-01 cells; assay: Function assays of platelets released from treated MEG-01 cells; assay type: cell-based, human
Description: Platelets isolation from culture. Platelets were separated from the megakaryocytic cells, by differential centrifugation and analyzed separately. Suspension cells were centrifuged first at 100 g-150 g for 15 minutes, and then the platelets rich supernatant was kept and centrifuged again at 800 g for 15 minutes. For impeding artefactual aggregation of platelets in the control, EDTA and RGD or RGDS were added in the cell suspension from the beginning of the centrifugations, and with each centrifugation step. 1 mg/ml RGD or RGDS and 10 mM EDTA final concentrations, were used for negative control (inactivated) or resting platelets. Platelets were activated with different agonists: 100 nM PMA, 1 μg/ml TRAP and 0.5 U/ml human a-thrombin. For most of assays TRAP 1 μg/ml was used. For scanning electron microscopy experiment (formation of the fibrin clot) human a-thrombin was used. For both sample sets, activated (with TRAP) and inactivated (EDTA, RGD), platelets collected from MEG-01 cultures incubated with 10 μM DMAT for 4 days were utilized.
PAC-I-FITC binding due to platelet activation flow cytometric assay. Monoclonal antibody PAC-1 recognizes an epitope on the glycoprotein αIIbβ3 of activated platelets. […]
Fibrinogen-Alexa Fluor 488 binding to platelets flow cytometric assay. […] Final concentration of fibrinogen conjugated to Alexa Fluor 488 was determined spectrophotometrically. […]

[3] = tested on: MEG-01 cells; assay: Viability (proliferation) assay, Trypan blue exclusion, MEG-01; assay type: cell-based, human
[4] = tested on: MEG-01 cells; assay: RPE-CD41a (αIIbβ3 integrin) flow cytometric immunophenotyping, maturation of MEG-01; assay type: cell-based, human; conditions: 10 μM DMAT vs control untreated
Description: Flow cytometric analysis. Cells were analyzed using a FACSCalibur flow cytofluorometer (Becton-Dickinson), with CellQuestPro ver. 3.3 software. The data was further analyzed with FlowJo ver. 6.2, and WinMDI 2.8 software. Proper gating was performed to characterize each cell population (MEG-01 cells and platelets). The population that corresponds to platelets (small, granulated particles), is PI negative because thrombocytes are anucleated cells (only the viable cells were considered) and were distinguished by their capacity to become activated, undergoing shape change in response to agonist and to show phosphatidylserine (PS) exposure when activated. Platelets were further separated from the megakaryocytic cells, by differential centrifugation, considering the size difference between these cell populations (1-5 μm for platelets and 35-150 μm for megakaryocytic cell line MEG-01) and analyzed separately. Voltage and channels settings were adjusted accordingly. Analyzed values were obtained with WinMDI ver. 2.8.
RPE-CD41a immunophenotyping of MEG-01 cells. CD41a is the antigen for αIIbβ3 complex and it is found on platelets and platelet precursors, including MEG-01 cell line. αIIbβ3 complex is a marker of differentiation for megakaryocytes. […] Cells were counted and adjusted to 10^6 cells/ml and 20 μl of RPE-CD41a was used for 180 μl cell suspension. […]

[5] = tested on: SW-480 cells; assay: Anchorage independence in soft agar, SW-480; assay type: cell-based, human; conditions: DMAT 10 μM, one week

## CN(C)c1nc2c(Br)c(Br)c(Br)c(Br)c2[nH]1 [DMAT, 2-dimethylamino-4,5,6,7-tetrabromo-1H-benzimidazole]
[1]
  tumor growth vs untreated control: significantly less cancerous growth
[2]; DMAT 10 μM at 72 hours, human thrombin 0.5 U/ml
  fibrin clot formation by platelets from treated MEG-01 cells: form a fibrin clot
[2]; response to human thrombin 0.5 U/ml
  function of platelets obtained from treated MEG-01 cells: functional
[3]; 25 μM DMAT, compared with 5 nM PMA
  proliferation of MEG-01 cells (Trypan Blue exclusion): level of decrease was similar
[3]; 50 μM DMAT, 4 days of treatment
  cell number / proliferation rate of MEG-01 cells: maintained a steady number of cells
[4]
  maturation level (αIIbβ3 integrin expression, RPE-CD41a): significant maturation levels
[5]
  colonies in soft agar: much smaller and fewer colonies
